Assay results published in the supplement of paper PMC10307832.

Key:
[1] = compound: CC1=CC(=C(N1C2=CC=C(C=C2)Cl)C)C(=O)CN3CCCCC3 [IU1-47] + NC(=O)Nc1cc(-c2cccc(F)c2)sc1C(=O)N[C@H]1CCCNC1 [AZD7762] (partner 0.2 µM); experiment: relative viability (nuclei count vs DMSO), 5 days (fraction); higher = more cells survive
In short: (§1)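 Relative viability was taken as the ratio of nuclei in treated wells to nuclei in vehicle wells. Lung cancer cell lines in 1536-well plates received compounds by pin tool one day after seeding, either one drug alone or a fixed anchor-drug dose plus five library-drug doses (not always all listed) in √10 steps. Nuclei were counted on 4× images after 5 days of treatment, and values are medians of duplicate plates.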

[2] = compound: CC1=CC(=C(N1C2=CC=C(C=C2)Cl)C)C(=O)CN3CCCCC3 [IU1-47] + O=C(CCCCCCC(=O)Nc1ccccc1)NO [Vorinostat] (partner 1 µM); experiment: as above
In short: as §1

| Cell Line | relative viability ([1]; first compound 0.08 µM) | relative viability ([1]; first compound 0.253 µM) | relative viability ([1]; first compound 0.8 µM) | relative viability ([1]; first compound 2.53 µM) | relative viability ([1]; first compound 8 µM) | relative viability ([2]; first compound 0.08 µM) | relative viability ([2]; first compound 0.253 µM) | relative viability ([2]; first compound 0.8 µM) | relative viability ([2]; first compound 2.53 µM) | relative viability ([2]; first compound 8 µM) |
| --- | --- | --- | --- | --- | --- | --- | --- | --- | --- | --- |
| NCI-H650 | 1.22 | 1 | 1.06 | 0.947 | 1.24 | 0.61 | 0.562 | 0.451 | 0.37 | 0.483 |
| NCI-H661 | – | – | – | – | – | 0.805 | 0.861 | 0.798 | 0.836 | 0.761 |
| NCI-H727 | 0.582 | 0.539 | 0.539 | 0.512 | 0.58 | 1.26 | 1.38 | 1.21 | 1.13 | 1.11 |
| NCI-H838 | 0.931 | 0.99 | 0.917 | 0.925 | 0.876 | 0.768 | 0.746 | 0.834 | 0.689 | 0.64 |
| NCI-H1355 | 0.798 | 0.957 | 0.844 | – | 0.584 | 0.72 | 0.646 | 0.674 | – | 0.518 |
| NCI-H1395 | 0.422 | 0.336 | 0.414 | 0.384 | 0.392 | 0.676 | 0.798 | 0.611 | 0.517 | 0.605 |
| NCI-H1437 | 1.14 | 1.11 | 1.12 | 1.05 | 1.1 | 0.807 | 0.801 | 0.81 | 0.735 | 0.801 |
| NCI-H1648 | 0.61 | 0.727 | 0.821 | 0.732 | 0.508 | 0.455 | 0.402 | 0.999 | 0.265 | 0.399 |
| NCI-H1650 | – | – | – | – | – | 0.631 | 0.523 | 0.62 | 0.564 | 0.722 |
| NCI-H1651 | 0.479 | 0.498 | 0.529 | 0.316 | 0.418 | 0.559 | 0.558 | 0.556 | 0.531 | 0.495 |
| NCI-H1666 | 0.866 | 0.86 | 0.854 | 0.803 | 0.815 | 0.961 | 0.984 | 1.08 | 1.1 | 1.03 |
| NCI-H1703 | 0.0968 | 0.172 | 0.133 | – | 0.112 | – | – | – | – | – |
| NCI-H1734 | 0.639 | 0.481 | 0.487 | 0.383 | 0.517 | 0.902 | 0.859 | 0.778 | 0.542 | 0.816 |
| NCI-H1755 | 0.429 | 0.557 | 0.57 | 0.443 | 0.377 | 0.82 | 0.895 | 0.799 | 0.828 | 0.668 |
| NCI-H1792 | 0.501 | 0.613 | 0.643 | 0.666 | 0.619 | – | – | – | – | – |
| NCI-H1793 | 0.716 | – | 0.516 | 0.319 | 0.338 | 0.628 | – | 0.77 | 0.64 | 0.686 |
| NCI-H1915 | 0.712 | 0.71 | 0.671 | 0.655 | 0.703 | 0.541 | 0.572 | 0.533 | 0.371 | 0.509 |
| NCI-H1944 | 0.794 | 0.612 | 0.601 | 0.445 | 0.464 | 0.567 | 0.59 | 0.593 | 0.5 | 0.524 |
| NCI-H1975 | 0.698 | 0.766 | 0.728 | 0.797 | 0.756 | 0.733 | 0.756 | 0.795 | 0.664 | 0.594 |
| NCI-H1993 | 0.682 | 0.763 | 0.769 | 0.781 | 0.85 | 0.635 | 0.858 | 0.819 | 0.835 | 0.718 |

| Cell Line | relative viability ([1]; first compound 0.08 µM) | relative viability ([1]; first compound 0.253 µM) | relative viability ([1]; first compound 0.8 µM) | relative viability ([1]; first compound 2.53 µM) | relative viability ([1]; first compound 8 µM) | relative viability ([2]; first compound 0.08 µM) | relative viability ([2]; first compound 0.253 µM) | relative viability ([2]; first compound 0.8 µM) | relative viability ([2]; first compound 2.53 µM) | relative viability ([2]; first compound 8 µM) |
| --- | --- | --- | --- | --- | --- | --- | --- | --- | --- | --- |
| NCI-H2009 | – | – | – | – | – | 0.761 | 0.783 | 0.72 | 0.656 | 0.668 |
| NCI-H2023 | – | – | – | – | – | 0.699 | 0.767 | 0.668 | 0.497 | 0.748 |
| NCI-H2085 | 0.983 | 1.02 | 0.997 | 0.73 | 1.02 | 0.853 | 0.861 | 0.791 | 0.626 | 0.76 |
| NCI-H2087 | 1.45 | 1.29 | 1.53 | 1.31 | 1.24 | 0.902 | 0.716 | 0.83 | 0.723 | 0.489 |
| NCI-H2126 | 1.01 | 1.08 | 1.14 | 0.712 | 0.837 | 0.895 | 0.775 | 0.801 | 0.478 | 0.731 |
| NCI-H2170 | 1.04 | 1.05 | 0.985 | 0.76 | 0.976 | 0.997 | 0.973 | 0.921 | 0.748 | 0.747 |
| NCI-H2228 | – | – | – | – | – | 0.577 | 0.6 | 0.725 | 0.692 | 0.563 |
| NCI-H2342 | 0.526 | 0.588 | 0.57 | 0.507 | 0.486 | 0.833 | 0.836 | 0.975 | 1.03 | 0.825 |
| NCI-H2347 | 0.78 | 0.845 | 0.865 | 0.79 | 0.621 | 0.668 | 0.628 | 0.662 | 0.444 | 0.528 |
| NCI-H2405 | 0.795 | 0.804 | 0.853 | 0.815 | 0.739 | 1.06 | 1.08 | 1.14 | 0.925 | 1.01 |
| NCI-H3122 | 1.08 | 1.08 | 1.02 | 1.02 | 0.88 | 1.29 | 1.15 | 1.17 | 1.06 | 1.01 |
| PC-3 [JPC-3] | 0.72 | 0.856 | 0.866 | 0.828 | 0.741 | 0.857 | 1.04 | 0.772 | 0.691 | 0.972 |
| PC-14 | 0.404 | 0.345 | 0.377 | 0.314 | 0.275 | 0.757 | 0.756 | 0.734 | 0.49 | 0.573 |
| RERF-LC-KJ | 1.42 | 1.17 | 1.18 | 0.6 | 0.823 | 0.743 | 0.749 | 0.749 | 0.604 | 0.605 |
| SK-LU-1 | – | – | – | – | – | 0.804 | 0.818 | 0.768 | 0.815 | 0.585 |
| SK-MES-1 | – | – | – | – | – | 1.09 | 1.15 | 1.26 | 1.24 | 1.03 |
| SW 900 | 0.694 | – | 0.695 | 0.611 | 0.683 | 0.361 | – | 0.616 | 0.603 | 0.428 |
| SW 1573 | – | – | – | – | – | 0.736 | 0.732 | 0.779 | 0.454 | 0.792 |
| UMC-11 | – | – | – | – | – | 0.409 | 0.408 | 0.374 | 0.413 | 0.377 |
